# Reference: US10603289B2, “Process for the manufacture of ajoene derivatives” (DANMARKS TEKNISKE UNIVERSITET, priority 2010, dated 2020)
# Columns and labels:
# [1] = tested on: rhamnolipid production of planktonic grown P. aeruginosa; assay: Rhamnolipid concentration in cultures quantified by LC-MS; type: cell-based; settings: for rhamnolipid content: OD=1.5 (FIG. 4)
# Excerpt: Samples retrieved at OD600=1.5 (dark grey bars), and at OD600=2.0 (light grey bars). Data represent the average of tree individual experiments. Error bars are mean±SD.
# To exemplify the actual efficacy of ajoene in inhibiting synthesis of one of the major virulence factors, the concentration of rhamnolipid present in the cultures grown for DNA array and RT-PCR where directly quantified by LC-MS. The production of rhamnolipids is initiated early in stationary phase co-ordinately regulated by the Rhl QS system encoded by the rhlA, rhlB and rhlC genes (PA3479, PA3478 and PA1131) [V. E. Wagner et al., J Bacteriol., 2003, 185, p. 2080-2095 and R. Rahim et al., Mol Microbiol., 2001, 40, p. 708-718]. Samples where therefore retrieved at an OD600 nm of 1.5 and 2.0 to monitor rhamnolipid production before and after the synthesis was fully initiated. […] This concentration therefore almost completely blocks rhamnolipid synthesis. (E,Z) ajoene having an E:Z ratio of 1:4 was used.
# [2] = tested on: biofilms of P. aeruginosa PAO1; assay: In vitro flow cell biofilm killing, live dead stains and CSLM; type: cell-based; settings: tobramycin or ajoene only
# Experimental: Dead cells are stained with the DNA stain PI (Dark grey/black). The biofilm were visualized with CSLM. C) Implant model treated with ajoene and tobramycin.
# 3873-3880]. It was however unknown what was the active ingredient in the garlic extract. Thus. biofilms of P. aeruginosa strain were either grown in the presence or absence of 100 μg/ml ajoene. At day three the biofilms were treated with 10 μg/ml tobramycin for 24 hours. […] 10 μg/ml tobramycin was therefore chosen for the present study.
# [3] = tested on: Gram negative bacteria; settings: E:Z=1:4 isomer used; cited from earlier work
# [4] = tested on: lasB; assay: RT-PCR verification of the microarray data; type: cell-based, P. aeruginosa; settings: 80 μg/ml ajoene; E:Z 1:4
# Experimental: (§1) To verify the microarray data, RT-PCR was performed with two of the key QS genes; lasB and rhlA (see FIG. 3). When comparing the two methods the repression of both the lasB and rhlA gene expression follow the same trend, with a general slightly increase in fold reduction observed with the RT-PCR based method. […] The expression of rhlA is primarily controlled by the Rhl QS system and the signal molecule BHL whereas the expression of lasB is affected by both the Las and the Rhl QS systems and the concentration of the signal molecules OdDHL and BHL. According to Rasmussen et al., [Rasmussen et al., Microbiology, 2005, 151, p. 1325-1340], the genes listed in table 3 are (except prpL which regulation is entirely governed by the Las QS system) subject to regulation by both the Las and Rhl QS systems. […] (E,Z) ajoene having an E:Z ratio of 1:4 was used in these experiments.
# [5] = tested on: rhlA; assay: RT-PCR verification of the microarray data; type: cell-based, P. aeruginosa; settings: 80 μg/ml ajoene; E:Z 1:4
# Experimental: as §1
# [6] = tested on: Gram positive bacteria; settings: E:Z=1:4 isomer used; cited from earlier work
# [7] = tested on: P. aeruginosa biofilms exposed to PMNs; assay: Flow chamber biofilm exposed to PMNs, propidium iodide staining; type: cell-based; settings: biofilm grown four days in the presence of 100 μg/ml ajoene; E:Z 1:4
# Experimental: A) The biofilm has grown without ajoene in the medium. B) The biofilm has grown in the presence of 100 μg/mL ajoene in the medium. Red fluorescence indicates necrotic PMN's leaking out their content of DNA (as stained by PI). Green fluorescence indicates top areas of the P. aeruginosa biofilm.
# Biofilms exposed to PMN leukocytes produce rhamnolipids that function as a shield and protects the biofilm bacteria from phagocytosis. […] 20-42]. The P. aeruginosa biofilms were grown for four days either in the presence or absence of 100 μg/ml ajoene. When PMNs subsequently were introduced in the flow chambers on top of the biofilms grown in the absence of ajoene, propidium iodide (PI) staining indicated necrosis of the PMNs (FIG. 5A). […] Ajoene treatment therefore rescues the PMN leukocytes by blocking biofilm synthesis of […]. It has previously been shown that rescued PMN's can phagocytose biofilm bacteria [T. Bjarnsholt et al., Microbiology, 2005, 151, p. 3873-3880]. (E,Z) ajoene having an E:Z ratio of 1:4 was used.
# [8] = tested on: P. aeruginosa cultures; assay: Growth inhibitory effect on exponential growing cultures; type: cell-based; settings: 10, 20, 40 and 80 μg/ml ajoene; E:Z 1:4
# Experimental: DNA microarray analysis was used to identify genes regulated by ajoene treatment. As a reference we have used the QS regulon previously identified by Hentzer et al., [M. Hentzer et al., EMBO J., 2003, 22, p. […] Exponential growing P. aeruginosa cultures were treated with the following four concentrations of ajoene; 10 μg/ml (42.7 μM), 20 μg/ml (85.4 μM), 40 μg/ml (170.8 μM) and 80 μg/ml (341.6 μM). (E,Z) ajoene having an E:Z ratio of 1:4 was used. […] The samples were retrieved at an OD600 nm of 2.0 (optical density) because previous investigations have shown the highest activity among the QS genes at that cell density. Gene expression of the treated cultures was compared to an untreated control.
# [9] = tested on: P. aeruginosa PAO1; type: in vivo
# Experimental: Mice were sacrificed on day one or day three post-infection and the contents of bacteria in the lungs were determined. Open squares indicate bacterial lung content per lung for each individual mouse. The median values are indicated with a filled black square. The statistic significance of difference in clearance was tested by a Mann-Whitney U test (analysis of nonparametric data) and p-values for the difference at day one and day three were 0.9 and 0.002 respectively.
# In this study ajoene was administered prophylactic and subsequently continued after infection. Injections were given subcutaneous in the peritoneum. We performed three individual in vivo treatment experiments with ajoene in the mouse model of pulmonary infection using the P. aeruginosa PAO1. BALB/c mice were intracheally challenged (at day 0) with alginate beads containing 1.5×10^8 CFU/ml P. aeruginosa. The two groups of mice were either untreated (placebo) or treated with ajoene 25 μg/g mouse once a day. The mice were given two days of prophylactic treatment or placebo prior to bacterial challenge. Treatment was continued for three days. […] When combining the experiments a significant difference on day three was seen (p<0.002) with a 500 fold difference in clearance between the groups (FIG. 7). This is concordant with the results obtained by Bjarnsholt et al (2005) in a similar lung infection model in with raw garlic extract was used as treatment [T. Bjarnsholt et al., Microbiology, 2005, 151, p. 3873-3880].
# This highlights that a synthesis providing a sufficiently pure “crude” ajoene product is essential in order to avoid the use of HPLC purification, as this step has a detrimental effect on biological activity. […] (E,Z) ajoene having an E:Z ratio of 1:4 was used.
smiles,measurement,setting,value
"C=CCSSC=CC[S+]([O-])CC=C (stereo not shown) [ajoene, (E,Z)-4,5,9-trithiadodeca-1,6,11-triene-9-oxide]",rhamnolipid content compared to the untreated culture,"[1]; 20 μg/ml ajoene, OD600 nm of 2.0",approximately ⅓
same,rhamnolipid content,[1]; 40 μg/ml ajoene,below the detection level
same,rhamnolipid present in the sample,[1]; 80 μg/ml ajoene,almost no detectable rhamnolipid
same,rhamnolipid content,[1]; 80 μg/ml ajoene,below the detection level
same,"killing of the biofilm bacteria, single agent",[2],no or only minor killing
same,inhibitory effect on Gram negative bacteria,[3],varied inhibitory effect
same,lowering of expression of lasB (RT-PCR),[4],~5 fold
same,lowering of expression of rhlA (RT-PCR),[5],~12 fold
same,growth inhibition of Gram positive bacteria,[6],strong growth inhibitor
same,necrosis of PMNs on biofilm (PI staining),[7],no necrosis of the PMNs was observed
same,growth inhibitory effects,[8],do not exert any growth inhibitory effects
same,difference in clearance between treated and placebo groups,"[9]; day three, 25 μg/g mouse once a day subcutaneous, two days prophylactic, three experiments combined",500 fold
same,tolerability of the administered dosage,"[9]; mouse, in vivo",tolerated well
